Source: paper doi:10.1101/2022.06.29.498187v1 (bioRxiv, 2022)

Experiments:
human GHSR1a [1] = target: T1, human GHSR1a (Homo sapiens, UniProt Q92847); experiment: NanoBiT-based homogenous binding assay; settings: ghrelin-SmBiT and LEAP2-SmBiT tracers
human GHSR1a [2] = target: T1, human GHSR1a; experiment: Receptor activation assay, CRE-controlled NanoLuc reporter; format: cell-based

T1 sequence (Q92847 whole entry): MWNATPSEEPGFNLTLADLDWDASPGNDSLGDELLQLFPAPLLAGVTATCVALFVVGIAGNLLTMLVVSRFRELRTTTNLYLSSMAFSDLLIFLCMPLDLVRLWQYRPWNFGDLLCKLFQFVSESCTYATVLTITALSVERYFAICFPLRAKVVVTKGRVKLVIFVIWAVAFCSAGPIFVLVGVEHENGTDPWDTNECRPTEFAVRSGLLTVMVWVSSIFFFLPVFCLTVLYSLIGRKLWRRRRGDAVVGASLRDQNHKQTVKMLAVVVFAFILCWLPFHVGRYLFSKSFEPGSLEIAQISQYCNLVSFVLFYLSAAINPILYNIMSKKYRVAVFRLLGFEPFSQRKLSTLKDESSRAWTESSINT

CCCCCSC[C@H](NC(=O)[C@H](CO)NC(=O)CN)C(=O)N[C@@H](Cc1ccccc1)C(=O)N[C@@H](CC(C)C)C(=O)N[C@@H](CO)C(=O)N1CCC[C@H]1C(=O)N[C@@H](CCC(=O)O)C(=O)N[C@@H](Cc1c[nH]cn1)C(=O)N[C@@H](CCC(N)=O)C(=O)N[C@@H](CCCNC(=N)N)C(=O)N[C@H](C(=O)N[C@@H](CCC(N)=O)C(=O)N[C@@H](CCC(N)=O)C(=O)N[C@@H](CCCNC(=N)N)C(=O)N[C@@H](CCCCN)C(=O)N[C@@H](CCC(=O)O)C(=O)N[C@@H](CO)C(=O)N[C@@H](CCCCN)C(=O)N[C@@H](CCCCN)C(=O)N1CCC[C@H]1C(=O)N1CCC[C@H]1C(=O)N[C@@H](C)C(=O)N[C@@H](CCCCN)C(=O)N[C@@H](CC(C)C)C(=O)N[C@@H](CCC(N)=O)C(=O)N1CCC[C@H]1C(=O)N[C@@H](CCCNC(=N)N)C(=O)O)C(C)C [analog 1]
fold lower receptor binding activity compared to native human ghrelin (human GHSR1a [1]): ~15 fold | fold lower receptor activation potency compared to native human ghrelin (human GHSR1a [2]): ~7 fold
